In article PMC13194042, “GABAA receptor agonists modulate intracellular Ca^2+ levels in activated human CD4^+ T cells” (Frontiers in Immunology, 2026):
pEC50: −log10 of the molar value. Read-outs that look alike come from different tables or passages of the source.

Tests used:
[1] = tested on: human resting CD4+ T cells; experiment: Calcium imaging in resting CD4+ T cells; format: cell-based; settings: GABA 500 nM; n = 47 cells
Description: Calcium imaging was performed as previously described ([12]). In brief, cells were loaded with 3 μM Fluo-8 AM calcium indicator (AAT Bioquest, Pleasanton, CA, USA) for 10 min at 37 °C and then seeded onto coverslips coated with 5% (3-aminopropyl)triethoxysilane (Sigma Aldrich) for 20 min at 37 °C. Calcium imaging was performed using a Zeiss LSM700 confocal microscope with a ×20 objective, capturing images at 0.5-s intervals. The recording solution was prepared by mixing two types of RPMI 1640 media, one containing 11 mM glucose (Gibco, Fisher Scientific, Sweden) and the other is glucose-free (Gibco, Fisher Scientific, Sweden). They were mixed in a 1:1 ratio, giving a final glucose concentration of 5.5 mM. The drugs were diluted in the recording solution and perfused into the chamber at specific concentrations using a peristaltic pump. After each drug application, the cells were perfused with the recording solution only to remove the drug. When the cells were again in the recording solution only, then the next test drug concentration was perfused into the chamber. […] The area around the individual cells was marked, and absolute fluorescence intensity values (F) were extracted using ZENBlue software. The relative intensity (F/Fmedian) for each cell was calculated for every recorded image and plotted against time. […]

[2] = target: T1, GABAA receptors in activated human CD4+ T cells (Homo sapiens, UniProt P28476); settings: ref [12], cited from earlier work
T1 sequence (P28476 21-465): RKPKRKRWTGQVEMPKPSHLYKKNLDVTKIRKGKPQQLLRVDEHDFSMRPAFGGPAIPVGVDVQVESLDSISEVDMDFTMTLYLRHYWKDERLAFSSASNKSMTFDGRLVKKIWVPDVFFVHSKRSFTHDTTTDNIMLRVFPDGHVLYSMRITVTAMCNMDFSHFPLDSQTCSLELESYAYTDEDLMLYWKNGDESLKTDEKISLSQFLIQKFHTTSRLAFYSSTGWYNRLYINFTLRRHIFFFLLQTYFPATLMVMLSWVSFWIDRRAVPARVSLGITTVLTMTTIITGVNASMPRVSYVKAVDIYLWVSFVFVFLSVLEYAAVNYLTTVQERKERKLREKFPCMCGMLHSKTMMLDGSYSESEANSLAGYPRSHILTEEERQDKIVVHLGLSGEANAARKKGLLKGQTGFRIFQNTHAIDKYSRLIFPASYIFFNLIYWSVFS

[3] = target: T1, GABAA receptors in activated human CD4+ T cells; experiment: Calcium imaging: agonist-evoked intracellular Ca2+ response in activated CD4+ T cells; format: cell-based
Source text: Human blood samples and blood buffy coats were obtained from Uppsala University Hospital (Uppsala Akademiska sjukhuset), the protocol of which was approved by the Regional Research Ethics Committee in Uppsala (Dnr 2013/347). All individuals who donated blood were voluntarily recruited. Peripheral blood mononuclear cells (PBMCs) were isolated from blood samples using density-gradient centrifugation with Ficoll-Paque™ PLUS (Sigma Aldrich, Sweden). Subsequently, CD4^+ T lymphocytes were isolated from the PBMCs by negative selection, utilizing a human CD4^+ T lymphocyte isolation kit (Miltenyi Biotec, Germany) as per the manufacturer’s instructions. The freshly isolated CD4^+ T lymphocytes (1 million cells/mL) were suspended in human plasma-like medium (HPLM) (Gibco, Fisher Scientific, Sweden) containing 10% heat-inactivated dialyzed fetal bovine serum (Gibco, Fisher Scientific, Sweden), 100 μg/mL streptomycin, 100 U/mL penicillin (Gibco, Fisher Scientific, Sweden), and 5 μM β-mercaptoethanol (Gibco, Fisher Scientific, Sweden). The cells were activated in a 96-well plate (1 × 10^5–1.2 × 10^5 cells/well) with 3 μg/mL plate-bound anti-CD3 antibody (BD Biosciences, USA) for 72 h. Insulin (1 nM) was added at 48 h after the activation of the cells. The anti-CD3 concentration (5 μg/mL) used by Jacobs et al. ([14]) is similar to the one employed in this study. […] Akt-dependent signaling is activated by insulin at 48 h post-activation and is reminiscent of the anti-CD28-evoked signaling ([14]).
Calcium imaging was performed as previously described ([12]). In brief, cells were loaded with 3 μM Fluo-8 AM calcium indicator (AAT Bioquest, Pleasanton, CA, USA) for 10 min at 37 °C and then seeded onto coverslips coated with 5% (3-aminopropyl)triethoxysilane (Sigma Aldrich) for 20 min at 37 °C. Calcium imaging was performed using a Zeiss LSM700 confocal microscope with a ×20 objective, capturing images at 0.5-s intervals. The recording solution was prepared by mixing two types of RPMI 1640 media, one containing 11 mM glucose (Gibco, Fisher Scientific, Sweden) and the other is glucose-free (Gibco, Fisher Scientific, Sweden). They were mixed in a 1:1 ratio, giving a final glucose concentration of 5.5 mM. The drugs were diluted in the recording solution and perfused into the chamber at specific concentrations using a peristaltic pump. After each drug application, the cells were perfused with the recording solution only to remove the drug. When the cells were again in the recording solution only, then the next test drug concentration was perfused into the chamber. This was done so that the receptors/cells had always been in a drug-free solution before a drug application, thus avoiding potential cumulative drug effects such as run-down or desensitization. The area around the individual cells was marked, and absolute fluorescence intensity values (F) were extracted using ZENBlue software. The relative intensity (F/Fmedian) for each cell was calculated for every recorded image and plotted against time. The peak relative intensity during the drug application was considered the drug’s response. Data are presented for all cells as scatter plots and box and whisker plots.
Single-cell data presentation and agonist-Ca^2+-response data were fitted in GraphPad Prism 10 (GraphPad Software Inc., La Jolla, CA, USA). The data were fitted using nonlinear regression with a standard dose–response model:
(F/Fmedian)max=[agonist]/[agonist]+(EC50)agonist

KCa3.1 channels = target: T2, KCa3.1 channels (Homo sapiens, UniProt O15554); experiment: Calcium imaging: block of GABA-activated Ca2+ signal by KCa3.1 blocker; format: cell-based; settings: GABA 500 nM; TRAM-34 1 µM; average, n = 169 cells, N = 3 donors
T2 construct: endogenous in cells
T2 sequence (O15554 whole entry): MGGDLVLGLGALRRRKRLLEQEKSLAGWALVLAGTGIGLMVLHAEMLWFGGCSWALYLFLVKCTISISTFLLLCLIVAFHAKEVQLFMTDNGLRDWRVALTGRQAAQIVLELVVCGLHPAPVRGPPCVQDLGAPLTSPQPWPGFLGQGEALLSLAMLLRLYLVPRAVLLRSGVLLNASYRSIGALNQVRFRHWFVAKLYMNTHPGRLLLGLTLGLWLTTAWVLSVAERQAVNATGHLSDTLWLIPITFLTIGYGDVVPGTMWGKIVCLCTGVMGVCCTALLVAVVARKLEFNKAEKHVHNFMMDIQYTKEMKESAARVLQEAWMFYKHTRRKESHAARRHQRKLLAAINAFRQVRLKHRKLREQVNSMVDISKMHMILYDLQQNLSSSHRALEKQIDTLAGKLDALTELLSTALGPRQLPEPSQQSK
Source text: Peripheral blood mononuclear cells (PBMCs) were isolated from blood samples using density-gradient centrifugation with Ficoll-Paque™ PLUS (Sigma Aldrich, Sweden). Subsequently, CD4^+ T lymphocytes were isolated from the PBMCs by negative selection, utilizing a human CD4^+ T lymphocyte isolation kit (Miltenyi Biotec, Germany) as per the manufacturer’s instructions. The freshly isolated CD4^+ T lymphocytes (1 million cells/mL) were suspended in human plasma-like medium (HPLM) (Gibco, Fisher Scientific, Sweden) containing 10% heat-inactivated dialyzed fetal bovine serum (Gibco, Fisher Scientific, Sweden), 100 μg/mL streptomycin, 100 U/mL penicillin (Gibco, Fisher Scientific, Sweden), and 5 μM β-mercaptoethanol (Gibco, Fisher Scientific, Sweden). The cells were activated in a 96-well plate (1 × 10^5–1.2 × 10^5 cells/well) with 3 μg/mL plate-bound anti-CD3 antibody (BD Biosciences, USA) for 72 h. […]
In brief, cells were loaded with 3 μM Fluo-8 AM calcium indicator (AAT Bioquest, Pleasanton, CA, USA) for 10 min at 37 °C and then seeded onto coverslips coated with 5% (3-aminopropyl)triethoxysilane (Sigma Aldrich) for 20 min at 37 °C. […] The area around the individual cells was marked, and absolute fluorescence intensity values (F) were extracted using ZENBlue software. The relative intensity (F/Fmedian) for each cell was calculated for every recorded image and plotted against time. […]

CRAC channels = target: T3, CRAC channels (Homo sapiens, UniProt Q96D31); experiment: Calcium imaging: block of GABA-mediated Ca2+ influx by CRAC channel inhibitor; format: cell-based; settings: YM-58483 10 μM, acute application; n = 116 cells, N = 3 donors
T3 construct: endogenous in cells
T3 sequence (Q96D31 whole entry): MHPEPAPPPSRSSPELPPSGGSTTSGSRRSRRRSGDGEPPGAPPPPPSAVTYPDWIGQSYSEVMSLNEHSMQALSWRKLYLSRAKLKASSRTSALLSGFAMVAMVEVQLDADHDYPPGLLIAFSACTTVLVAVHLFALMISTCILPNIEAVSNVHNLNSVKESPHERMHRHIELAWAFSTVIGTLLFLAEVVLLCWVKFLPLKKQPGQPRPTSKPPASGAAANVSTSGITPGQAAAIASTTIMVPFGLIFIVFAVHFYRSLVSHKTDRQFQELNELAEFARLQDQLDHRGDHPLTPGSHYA
Source text: Human blood samples and blood buffy coats were obtained from Uppsala University Hospital (Uppsala Akademiska sjukhuset), the protocol of which was approved by the Regional Research Ethics Committee in Uppsala (Dnr 2013/347). All individuals who donated blood were voluntarily recruited. Peripheral blood mononuclear cells (PBMCs) were isolated from blood samples using density-gradient centrifugation with Ficoll-Paque™ PLUS (Sigma Aldrich, Sweden). Subsequently, CD4^+ T lymphocytes were isolated from the PBMCs by negative selection, utilizing a human CD4^+ T lymphocyte isolation kit (Miltenyi Biotec, Germany) as per the manufacturer’s instructions. The freshly isolated CD4^+ T lymphocytes (1 million cells/mL) were suspended in human plasma-like medium (HPLM) (Gibco, Fisher Scientific, Sweden) containing 10% heat-inactivated dialyzed fetal bovine serum (Gibco, Fisher Scientific, Sweden), 100 μg/mL streptomycin, 100 U/mL penicillin (Gibco, Fisher Scientific, Sweden), and 5 μM β-mercaptoethanol (Gibco, Fisher Scientific, Sweden). […]
Calcium imaging was performed as previously described ([12]). […] The area around the individual cells was marked, and absolute fluorescence intensity values (F) were extracted using ZENBlue software. The relative intensity (F/Fmedian) for each cell was calculated for every recorded image and plotted against time. […]

CRAC channel current = target: T4, CRAC channel current (Homo sapiens, UniProt Q96D31); experiment: Whole-cell patch-clamp recording of CRAC-channel-mediated current; format: cell-based
T4 construct: endogenous in cells
T4 sequence (Q96D31 whole entry): as above
Source text: To study the effect of YM58483 and picrotoxin (PTX) on CRAC-channel-mediated currents, the electrophysiological patch-clamp recordings were done in the whole-cell configuration. The extracellular solution was composed of the following (in mM): 155 NaCl, 4.5 KCl, 2 CaCl2, 1 MgCl2, 5 HEPES, and 5.6 glucose (pH 7.4, adjusted with NaOH). The pipette solution consisted of the following (in mM): 140 Cs methanesulfonate, 10 NaCl, 3 MgCl2, 10 HEPES, and 10 EGTA (pH 7.3, with CsOH). We further examined the recovery of currents during repeated drug applications to evaluate the level of run-down and desensitization, if present. In these experiments, in order to keep the intracellular chloride concentration intact, gramicidin (2.6 μg/mL) was used to obtain the perforated configuration. The extracellular solution (in mM) contained the following: 157 NaCl, 4.5 KCl, 0.5 CaCl2, 1 MgCl2, 5 HEPES, and 5.6 glucose (pH 7.4, adjusted with NaOH), and the pipette solution consisted of the following (mM): 149 KCl, 2 CaCl2, 1 MgCl2, 1 NaCl, 10 HEPES, and 5.6 glucose (pH 7.3, adjusted with KOH). […] Recordings were performed with the help of an Axopatch 200B amplifier, filtered at 2 kHz, and digitized at 10 kHz with an analog-to-digital converter. For the recordings, the Clampex 10.5 (Molecular Devices, San Jose, CA, USA) program was used. […]

[4] = read-out: EC50, half-maximal activation concentration of the evoked Ca2+ signal; activated CD4+ T cells, 72 h post-activation, 1 nM insulin last 24 h, 5.5 mM glucose

## NCCCC(=O)O [GABA, γ-Aminobutyric acid]
[1]
  Ca2+ response in resting CD4+ T cells: does not evoke a calcium response
[2]; read-out: EC50 of the GABA-evoked Ca2+ signal
  pEC50: 11.30

## NC/C=C/C(=O)O [TACA, trans-4-aminocrotonic acid]
[3]; TACA vs GABA
  EC50 for the Ca2+-evoked signal relative to GABA (fold higher): approximately 500 fold
[3]; in 500 nM TACA
  relative maximum Ca2+ signal (F/Fmedian): 1.10
[3]; [4]
  pEC50: 8.66

## Oc1noc2c1CCNC2 [THIP, 4,5,6,7-tetrahydroisoxazolo(5,4-c)pyridin-3-ol]
[3]; in 100 nM THIP
  relative maximum Ca2+ signal (F/Fmedian): 1.20
[3]; [4]
  pEC50: 11.30

## Clc1ccccc1C(c1ccccc1)(c1ccccc1)n1cccn1 [TRAM-34]
KCa3.1 channels
  inhibition of GABA-induced increase in intracellular Ca2+ levels: ~100%

## Cc1nnsc1C(=O)Nc1ccc(-n2nc(C(F)(F)F)cc2C(F)(F)F)cc1 [YM58483]
CRAC channels
  effect on GABA (500 nM)-evoked increase in intracellular Ca2+ levels: inhibited
CRAC channel current; 10 μM YM58483, whole-cell, voltage ramps, current normalized to control
  reduction of the Ca2+ (CRAC channel) current: approximately 40%

## O=C(O)C1=CCNCC1 [isoguvacine]
[3]; activated CD4+ T cells, 72 h post-activation, 1 nM insulin last 24 h, 5.5 mM glucose; read-out: EC50, half-maximal activation concentration of the evoked Ca2+ signal
  pEC50: 7.26
[3]; in 10 μM isoguvacine
  relative maximum Ca2+ signal (F/Fmedian): 1.13

## NCc1cc(=O)[nH]o1 [muscimol]
[3]; at 1 μM muscimol
  relative maximum Ca2+ signal (F/Fmedian): approximately 1.17
[3]; [4]
  pEC50: 9.79

## Picrotoxin
CRAC channel current; whole-cell, current at -80 mV normalized to control, n = 3 cells, N = 2 donors
  effect on the Ca2+ (CRAC channel) current: did not reduce the Ca^2+ current
[2]
  effect on muscimol (500 nM)- or TACA (500 nM)-evoked Ca2+ signals: blocked
